Tests used:
Test in all cases: normalised viability (% of control), CellTiter-Blue; higher = more viable cells (about 100 = DMSO control)
[1] = tested on: MFM-223; conditions: 10 nM; incubation time: 72 h
Experimental: (§1)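 DSRT, CellTiter-Blue viability, 72 h incubation. Signal is normalised to DMSO and benzethonium chloride controls. Value is the normalised response at dose 3.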

[2] = tested on: SK-BR-3; conditions: 10 nM; incubation time: 72 h
Experimental: as §1

[3] = tested on: MDA-MB-231; conditions: 10 nM; incubation time: 72 h
Experimental: as §1

[4] = tested on: MDA-MB-436; conditions: 10 nM; incubation time: 72 h
Experimental: as §1

[5] = tested on: HDQ-P1; conditions: 1 nM; incubation time: 72 h
Experimental: as §1

[6] = tested on: Hs578T; conditions: 10 nM; incubation time: 72 h
Experimental: as §1

[7] = tested on: MDA-MB-453; conditions: 1 nM; incubation time: 72 h
Experimental: as §1

[8] = tested on: MDA-MB-468; conditions: 10 nM; incubation time: 72 h
Experimental: as §1

[9] = tested on: BT-474; conditions: 10 nM; incubation time: 72 h
Experimental: as §1

[10] = tested on: CAL-85-1; conditions: incubation time: 72 h
Procedure, shortened: (§2)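 Each entry is normalised viability at a single listed concentration within a series. It comes from breast cancer cell lines incubated 72 h with compound in 384-well plates, then measured with CellTiter-Blue fluorescence at 560/590 nm. Every plate was normalised between vehicle (100) and a positive kill control (0).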

[11] = tested on: MFM-223; conditions: incubation time: 72 h
Procedure, shortened: as §2

[12] = tested on: SK-BR-3; conditions: incubation time: 72 h
Procedure, shortened: as §2

[13] = tested on: MDA-MB-231; conditions: incubation time: 72 h
Procedure, shortened: as §2

[14] = tested on: HCC1937; conditions: incubation time: 72 h
Procedure, shortened: as §2

[15] = tested on: MDA-MB-436; conditions: incubation time: 72 h
Procedure, shortened: as §2

[16] = tested on: CAL-51; conditions: incubation time: 72 h
Procedure, shortened: as §2

[17] = tested on: BT-549; conditions: incubation time: 72 h
Procedure, shortened: as §2

[18] = tested on: HDQ-P1; conditions: incubation time: 72 h
Procedure, shortened: as §2

[19] = tested on: Hs578T; conditions: incubation time: 72 h
Procedure, shortened: as §2

[20] = tested on: HCC1143; conditions: incubation time: 72 h
Procedure, shortened: as §2

[21] = tested on: CAL-120; conditions: incubation time: 72 h
Procedure, shortened: as §2

[22] = tested on: MDA-MB-453; conditions: incubation time: 72 h
Procedure, shortened: as §2

[23] = tested on: CAL-148; conditions: incubation time: 72 h
Procedure, shortened: as §2

[24] = tested on: HCC1599; conditions: incubation time: 72 h
Procedure, shortened: as §2

[25] = tested on: MDA-MB-468; conditions: incubation time: 72 h
Procedure, shortened: as §2

[26] = tested on: DU-4475; conditions: incubation time: 72 h
Procedure, shortened: as §2

[27] = tested on: BT-474; conditions: incubation time: 72 h
Procedure, shortened: as §2

CCOc1cc2ncc(C#N)c(Nc3ccc(OCc4ccccn4)c(Cl)c3)c2cc1NC(=O)/C=C/CN(C)C [Neratinib]
Conditions | normalised viability [%]
[1] | 87.9
[2] | 69.9
[3] | 118
[4] | 117
[5] | 114
[6] | 84.1
[7] | 100
[8] | 107
[9] | 105

normalised viability [%]
Conditions | 0.3 nM | 1 nM | 3 nM | 10 nM | 100 nM | 1000 nM
[10] | 92.7 | – | 100 | 97.1 | – | –
[11] | – | 99.2 | – | – | 87.7 | 91.6
[12] | – | 107 | – | – | 95.8 | 114
[13] | – | 114 | – | – | 131 | 135
[14] | – | 80.3 | – | – | 99.5 | 96.3
[15] | – | 104 | – | – | 108 | 110
[16] | 92 | – | 90.5 | 93 | – | –
[17] | – | 93.7 | – | – | 82 | 93.8
[18] | 123 | – | 115 | 106 | – | –
[19] | – | 98.6 | – | – | 88.5 | 93.9
[20] | – | 97.1 | – | – | 91.9 | 84.5
[21] | – | 95.7 | – | – | 76 | 82.7
[22] | 106 | – | 99 | 88.3 | – | –
[23] | 86.6 | – | 78.6 | 93.9 | – | –
[24] | – | 108 | – | – | 106 | 90.1
[25] | – | 110 | – | – | 114 | 106
[26] | 103 | – | 95.4 | 101 | – | –
[27] | – | 105 | – | – | 120 | 91.2

COc1cccc2c1C(=O)c1c(O)c3c(c(O)c1C2=O)C[C@@](O)(C(C)=O)C[C@@H]3O[C@H]1C[C@H](N)[C@H](O)[C@H](C)O1 [Daunorubicin]
Conditions | normalised viability [%]
[1] | 90.9
[2] | 87.3
[3] | 85.2
[4] | 92.1
[5] | 153
[6] | 85.9
[7] | 103
[8] | 99.8
[9] | 115

normalised viability [%]
Conditions | 0.3 nM | 1 nM | 3 nM | 10 nM | 100 nM | 1000 nM
[10] | 87.3 | – | 86.8 | 89.1 | – | –
[11] | – | 108 | – | – | 104 | 26.7
[12] | – | 103 | – | – | 40.1 | 6.42
[13] | – | 101 | – | – | 38.4 | 8.64
[14] | – | 105 | – | – | 34.2 | 20
[15] | – | 100 | – | – | 50.4 | 17.3
[16] | 97.1 | – | 92.9 | 88.2 | – | –
[17] | – | 87 | – | – | 59 | 11
[18] | 133 | – | 94.5 | 97.3 | – | –
[19] | – | 111 | – | – | 64.1 | 6.42
[20] | – | 81.4 | – | – | 52.7 | 32
[21] | – | 80.3 | – | – | 35.9 | 9.51
[22] | 110 | – | 114 | 97 | – | –
[23] | 88.5 | – | 106 | 77.6 | – | –
[24] | – | 82.5 | – | – | 98.8 | 53.7
[25] | – | 102 | – | – | 52.2 | 6.86
[26] | 84.7 | – | 86.3 | 70.7 | – | –
[27] | – | 118 | – | – | 80.3 | 17.3
